Measured values published in ChEMBL document CHEMBL1158337, “Synthesis and bioassay of a new class of heterocycles pyrrolyl oxadiazoles/thiadiazoles/triazoles” (Eur J Med Chem, 2009).
In brackets after ≈: the same amount, converted by molar mass.

tested on: Staphylococcus aureus; experiment: Antibacterial activity against Staphylococcus aureus at 100 ug/disk after 24 hrs by agar disc-diffusion method; type: functional; conditions: read-out: IZ

Compound	zone of inhibition at 100 µg/disc
O=S(=O)(Cc1nnc(S)o1)c1c[nH]cc1S(=O)(=O)c1ccccc1	12 mm
Nn1c(S)nnc1CS(=O)(=O)c1c[nH]cc1S(=O)(=O)c1ccccc1	28 mm
Cc1ccc(S(=O)(=O)c2c[nH]cc2S(=O)(=O)Cc2nnc(S)s2)cc1	16 mm
Cc1ccc(S(=O)(=O)c2c[nH]cc2S(=O)(=O)Cc2nnc(S)o2)cc1	11 mm
O=C(O)c1cn(C2CC2)c2cc(N3CCNCC3)c(F)cc2c1=O [CIPROFLOXACIN]	34 mm

tested on: Staphylococcus aureus; experiment: Antibacterial activity against Staphylococcus aureus at 200 ug/disk after 24 hrs by agar disc-diffusion method; type: functional; conditions: read-out: IZ

Compound	zone of inhibition at 200 µg/disc
O=S(=O)(Cc1nnc(S)o1)c1c[nH]cc1S(=O)(=O)c1ccccc1	15 mm
Nn1c(S)nnc1CS(=O)(=O)c1c[nH]cc1S(=O)(=O)c1ccccc1	32 mm
Cc1ccc(S(=O)(=O)c2c[nH]cc2S(=O)(=O)Cc2nnc(S)s2)cc1	17 mm
Cc1ccc(S(=O)(=O)c2c[nH]cc2S(=O)(=O)Cc2nnc(S)o2)cc1	14 mm
O=C(O)c1cn(C2CC2)c2cc(N3CCNCC3)c(F)cc2c1=O [CIPROFLOXACIN]	38 mm

tested on: Bacillus subtilis; experiment: Antibacterial activity against Bacillus subtilis at 100 ug/disk after 24 hrs by agar disc-diffusion method; type: functional; conditions: read-out: IZ

Compound	zone of inhibition at 100 µg/disc
O=S(=O)(Cc1nnc(S)o1)c1c[nH]cc1S(=O)(=O)c1ccccc1	11 mm
Nn1c(S)nnc1CS(=O)(=O)c1c[nH]cc1S(=O)(=O)c1ccccc1	31 mm
Cc1ccc(S(=O)(=O)c2c[nH]cc2S(=O)(=O)Cc2nnc(S)s2)cc1	17 mm
Cc1ccc(S(=O)(=O)c2c[nH]cc2S(=O)(=O)Cc2nnc(S)o2)cc1	12 mm
O=C(O)c1cn(C2CC2)c2cc(N3CCNCC3)c(F)cc2c1=O [CIPROFLOXACIN]	36 mm

tested on: Bacillus subtilis; experiment: Antibacterial activity against Bacillus subtilis at 200 ug/disk after 24 hrs by agar disc-diffusion method; type: functional; conditions: read-out: IZ

Compound	zone of inhibition at 200 µg/disc
O=S(=O)(Cc1nnc(S)o1)c1c[nH]cc1S(=O)(=O)c1ccccc1	13 mm
Nn1c(S)nnc1CS(=O)(=O)c1c[nH]cc1S(=O)(=O)c1ccccc1	35 mm
Cc1ccc(S(=O)(=O)c2c[nH]cc2S(=O)(=O)Cc2nnc(S)s2)cc1	19 mm
Cc1ccc(S(=O)(=O)c2c[nH]cc2S(=O)(=O)Cc2nnc(S)o2)cc1	16 mm
O=C(O)c1cn(C2CC2)c2cc(N3CCNCC3)c(F)cc2c1=O [CIPROFLOXACIN]	42 mm

tested on: Escherichia coli; experiment: Antibacterial activity against Escherichia coli at 100 ug/disk after 24 hrs by agar disc-diffusion method; type: functional; conditions: read-out: IZ

Compound	zone of inhibition at 100 µg/disc
O=S(=O)(Cc1nnc(S)o1)c1c[nH]cc1S(=O)(=O)c1ccccc1	14 mm
Nn1c(S)nnc1CS(=O)(=O)c1c[nH]cc1S(=O)(=O)c1ccccc1	22 mm
Cc1ccc(S(=O)(=O)c2c[nH]cc2S(=O)(=O)Cc2nnc(S)s2)cc1	18 mm
Cc1ccc(S(=O)(=O)c2c[nH]cc2S(=O)(=O)Cc2nnc(S)o2)cc1	11 mm
O=C(O)c1cn(C2CC2)c2cc(N3CCNCC3)c(F)cc2c1=O [CIPROFLOXACIN]	40 mm

tested on: Escherichia coli; experiment: Antibacterial activity against Escherichia coli at 200 ug/disk after 24 hrs by agar disc-diffusion method; type: functional; conditions: read-out: IZ

Compound	zone of inhibition at 200 µg/disc
O=S(=O)(Cc1nnc(S)o1)c1c[nH]cc1S(=O)(=O)c1ccccc1	17 mm
Nn1c(S)nnc1CS(=O)(=O)c1c[nH]cc1S(=O)(=O)c1ccccc1	26 mm
Cc1ccc(S(=O)(=O)c2c[nH]cc2S(=O)(=O)Cc2nnc(S)s2)cc1	20 mm
Cc1ccc(S(=O)(=O)c2c[nH]cc2S(=O)(=O)Cc2nnc(S)o2)cc1	14 mm
O=C(O)c1cn(C2CC2)c2cc(N3CCNCC3)c(F)cc2c1=O [CIPROFLOXACIN]	45 mm

tested on: Klebsiella pneumoniae; experiment: Antibacterial activity against Klebsiella pneumoniae at 100 ug/disk after 24 hrs by agar disc-diffusion method; type: functional; conditions: read-out: IZ

Compound	zone of inhibition at 100 µg/disc
O=S(=O)(Cc1nnc(S)o1)c1c[nH]cc1S(=O)(=O)c1ccccc1	13 mm
Nn1c(S)nnc1CS(=O)(=O)c1c[nH]cc1S(=O)(=O)c1ccccc1	21 mm
Cc1ccc(S(=O)(=O)c2c[nH]cc2S(=O)(=O)Cc2nnc(S)s2)cc1	16 mm
Cc1ccc(S(=O)(=O)c2c[nH]cc2S(=O)(=O)Cc2nnc(S)o2)cc1	11 mm
O=C(O)c1cn(C2CC2)c2cc(N3CCNCC3)c(F)cc2c1=O [CIPROFLOXACIN]	37 mm

tested on: Klebsiella pneumoniae; experiment: Antibacterial activity against Klebsiella pneumoniae at 200 ug/disk after 24 hrs by agar disc-diffusion method; type: functional; conditions: read-out: IZ

Compound	zone of inhibition at 200 µg/disc
O=S(=O)(Cc1nnc(S)o1)c1c[nH]cc1S(=O)(=O)c1ccccc1	16 mm
Nn1c(S)nnc1CS(=O)(=O)c1c[nH]cc1S(=O)(=O)c1ccccc1	22 mm
Cc1ccc(S(=O)(=O)c2c[nH]cc2S(=O)(=O)Cc2nnc(S)s2)cc1	19 mm
Cc1ccc(S(=O)(=O)c2c[nH]cc2S(=O)(=O)Cc2nnc(S)o2)cc1	13 mm
O=C(O)c1cn(C2CC2)c2cc(N3CCNCC3)c(F)cc2c1=O [CIPROFLOXACIN]	42 mm

tested on: Fusarium solani; experiment: Antifungal activity against Fusarium solani at 100 ug/disk after 48 hrs by agar disc-diffusion method; type: functional; conditions: read-out: IZ

Compound	zone of inhibition at 100 µg/disc
CC(=O)N1CCN(c2ccc(OCC3COC(Cn4ccnc4)(c4ccc(Cl)cc4Cl)O3)cc2)CC1 (stereo unspecified) [KETOCONAZOLE]	38 mm
O=S(=O)(Cc1nnc(S)o1)c1c[nH]cc1S(=O)(=O)c1ccccc1	18 mm
Nn1c(S)nnc1CS(=O)(=O)c1c[nH]cc1S(=O)(=O)c1ccccc1	33 mm
Cc1ccc(S(=O)(=O)c2c[nH]cc2S(=O)(=O)Cc2nnc(S)s2)cc1	25 mm
Cc1ccc(S(=O)(=O)c2c[nH]cc2S(=O)(=O)Cc2nnc(S)o2)cc1	16 mm

tested on: Fusarium solani; experiment: Antifungal activity against Fusarium solani at 200 ug/disk after 48 hrs by agar disc-diffusion method; type: functional; conditions: read-out: IZ

Compound	zone of inhibition at 200 µg/disc
CC(=O)N1CCN(c2ccc(OCC3COC(Cn4ccnc4)(c4ccc(Cl)cc4Cl)O3)cc2)CC1 (stereo unspecified) [KETOCONAZOLE]	42 mm
O=S(=O)(Cc1nnc(S)o1)c1c[nH]cc1S(=O)(=O)c1ccccc1	20 mm
Nn1c(S)nnc1CS(=O)(=O)c1c[nH]cc1S(=O)(=O)c1ccccc1	36 mm
Cc1ccc(S(=O)(=O)c2c[nH]cc2S(=O)(=O)Cc2nnc(S)s2)cc1	27 mm
Cc1ccc(S(=O)(=O)c2c[nH]cc2S(=O)(=O)Cc2nnc(S)o2)cc1	19 mm

tested on: Curvularia lunata; experiment: Antifungal activity against Curvularia lunata at 100 ug/disk after 48 hrs by agar disc-diffusion method; type: functional; conditions: read-out: IZ

Compound	zone of inhibition at 100 µg/disc
CC(=O)N1CCN(c2ccc(OCC3COC(Cn4ccnc4)(c4ccc(Cl)cc4Cl)O3)cc2)CC1 (stereo unspecified) [KETOCONAZOLE]	41 mm
O=S(=O)(Cc1nnc(S)o1)c1c[nH]cc1S(=O)(=O)c1ccccc1	17 mm
Nn1c(S)nnc1CS(=O)(=O)c1c[nH]cc1S(=O)(=O)c1ccccc1	34 mm
Cc1ccc(S(=O)(=O)c2c[nH]cc2S(=O)(=O)Cc2nnc(S)s2)cc1	22 mm
Cc1ccc(S(=O)(=O)c2c[nH]cc2S(=O)(=O)Cc2nnc(S)o2)cc1	15 mm

tested on: Curvularia lunata; experiment: Antifungal activity against Curvularia lunata at 200 ug/disk after 48 hrs by agar disc-diffusion method; type: functional; conditions: read-out: IZ

Compound	zone of inhibition at 200 µg/disc
CC(=O)N1CCN(c2ccc(OCC3COC(Cn4ccnc4)(c4ccc(Cl)cc4Cl)O3)cc2)CC1 (stereo unspecified) [KETOCONAZOLE]	44 mm
O=S(=O)(Cc1nnc(S)o1)c1c[nH]cc1S(=O)(=O)c1ccccc1	21 mm
Nn1c(S)nnc1CS(=O)(=O)c1c[nH]cc1S(=O)(=O)c1ccccc1	36 mm
Cc1ccc(S(=O)(=O)c2c[nH]cc2S(=O)(=O)Cc2nnc(S)s2)cc1	24 mm
Cc1ccc(S(=O)(=O)c2c[nH]cc2S(=O)(=O)Cc2nnc(S)o2)cc1	18 mm

tested on: Aspergillus niger; experiment: Antifungal activity against Aspergillus niger at 100 ug/disk after 48 hrs by agar disc-diffusion method; type: functional; conditions: read-out: IZ

Compound	zone of inhibition at 100 µg/disc
CC(=O)N1CCN(c2ccc(OCC3COC(Cn4ccnc4)(c4ccc(Cl)cc4Cl)O3)cc2)CC1 (stereo unspecified) [KETOCONAZOLE]	36 mm
O=S(=O)(Cc1nnc(S)o1)c1c[nH]cc1S(=O)(=O)c1ccccc1	15 mm
Nn1c(S)nnc1CS(=O)(=O)c1c[nH]cc1S(=O)(=O)c1ccccc1	30 mm
Cc1ccc(S(=O)(=O)c2c[nH]cc2S(=O)(=O)Cc2nnc(S)s2)cc1	21 mm
Cc1ccc(S(=O)(=O)c2c[nH]cc2S(=O)(=O)Cc2nnc(S)o2)cc1	17 mm

tested on: Aspergillus niger; experiment: Antifungal activity against Aspergillus niger at 200 ug/disk after 48 hrs by agar disc-diffusion method; type: functional; conditions: read-out: IZ

Compound	zone of inhibition at 200 µg/disc
CC(=O)N1CCN(c2ccc(OCC3COC(Cn4ccnc4)(c4ccc(Cl)cc4Cl)O3)cc2)CC1 (stereo unspecified) [KETOCONAZOLE]	39 mm
O=S(=O)(Cc1nnc(S)o1)c1c[nH]cc1S(=O)(=O)c1ccccc1	20 mm
Nn1c(S)nnc1CS(=O)(=O)c1c[nH]cc1S(=O)(=O)c1ccccc1	34 mm
Cc1ccc(S(=O)(=O)c2c[nH]cc2S(=O)(=O)Cc2nnc(S)s2)cc1	24 mm
Cc1ccc(S(=O)(=O)c2c[nH]cc2S(=O)(=O)Cc2nnc(S)o2)cc1	21 mm

tested on: Staphylococcus aureus; experiment: Antibacterial activity against Staphylococcus aureus after 24 hrs by microdilution susceptibility method; type: functional; conditions: not given

MIC	Compound
25 µg/mL (≈ 62.6 µM)	Nn1c(S)nnc1CS(=O)(=O)c1c[nH]cc1S(=O)(=O)c1ccccc1

tested on: Bacillus subtilis; experiment: Antibacterial activity against Bacillus subtilis after 24 hrs by microdilution susceptibility method; type: functional; conditions: not given

Compound	MIC
Nn1c(S)nnc1CS(=O)(=O)c1c[nH]cc1S(=O)(=O)c1ccccc1	100 µg/mL (≈ 250 µM)
O=C(O)c1cn(C2CC2)c2cc(N3CCNCC3)c(F)cc2c1=O [CIPROFLOXACIN]	6.25 µg/mL (≈ 18.9 µM)

tested on: Escherichia coli; experiment: Antibacterial activity against Escherichia coli after 24 hrs by microdilution susceptibility method; type: functional; conditions: not given

MIC	Compound
100 µg/mL (≈ 250 µM)	Nn1c(S)nnc1CS(=O)(=O)c1c[nH]cc1S(=O)(=O)c1ccccc1

tested on: Klebsiella pneumoniae; experiment: Antibacterial activity against Klebsiella pneumoniae after […] by microdilution susceptibility method; type: functional; conditions: not given

Compound	MIC
Nn1c(S)nnc1CS(=O)(=O)c1c[nH]cc1S(=O)(=O)c1ccccc1	100 µg/mL (≈ 250 µM)
O=C(O)c1cn(C2CC2)c2cc(N3CCNCC3)c(F)cc2c1=O [CIPROFLOXACIN]	6.25 µg/mL (≈ 18.9 µM)

tested on: Fusarium solani; experiment: Antifungal activity against Fusarium solani after 48 hrs by microdilution susceptibility method; type: functional; conditions: not given

Compound	MIC
CC(=O)N1CCN(c2ccc(OCC3COC(Cn4ccnc4)(c4ccc(Cl)cc4Cl)O3)cc2)CC1 (stereo unspecified) [KETOCONAZOLE]	12.5 µg/mL (≈ 23.5 µM)
Nn1c(S)nnc1CS(=O)(=O)c1c[nH]cc1S(=O)(=O)c1ccccc1	100 µg/mL (≈ 250 µM)

tested on: Curvularia lunata; experiment: Antifungal activity against Curvularia lunata after 48 hrs by microdilution susceptibility method; type: functional; conditions: not given

Compound	MIC
CC(=O)N1CCN(c2ccc(OCC3COC(Cn4ccnc4)(c4ccc(Cl)cc4Cl)O3)cc2)CC1 (stereo unspecified) [KETOCONAZOLE]	6.25 µg/mL (≈ 11.8 µM)
Nn1c(S)nnc1CS(=O)(=O)c1c[nH]cc1S(=O)(=O)c1ccccc1	100 µg/mL (≈ 250 µM)

tested on: Aspergillus niger; experiment: Antifungal activity against Aspergillus niger after 48 hrs by microdilution susceptibility method; type: functional; conditions: not given

Compound	MIC
CC(=O)N1CCN(c2ccc(OCC3COC(Cn4ccnc4)(c4ccc(Cl)cc4Cl)O3)cc2)CC1 (stereo unspecified) [KETOCONAZOLE]	6.25 µg/mL (≈ 11.8 µM)
Nn1c(S)nnc1CS(=O)(=O)c1c[nH]cc1S(=O)(=O)c1ccccc1	100 µg/mL (≈ 250 µM)

tested on: A549; experiment: Cytotoxicity against human A549 cells upto 100 uM after 72 hrs by MTT assay in presence of 10% fetal bovine serum; type: functional, cell-based; conditions: not given

Compound	Activity
O=S(=O)(Cc1nnc(S)o1)c1c[nH]cc1S(=O)(=O)c1ccccc1	Not toxic
Nn1c(S)nnc1CS(=O)(=O)c1c[nH]cc1S(=O)(=O)c1ccccc1	Not toxic

tested on: not listed separately; experiment: Cytotoxicity against mink CCL64 cells upto 100 uM after 72 hrs by MTT assay in presence of 0.2% fetal bovine serum; type: cell-based; conditions: neovison vison, ccl64, 72 h

Compound	Activity
O=S(=O)(Cc1nnc(S)o1)c1c[nH]cc1S(=O)(=O)c1ccccc1	Non-toxic
Nn1c(S)nnc1CS(=O)(=O)c1c[nH]cc1S(=O)(=O)c1ccccc1	Non-toxic
